Holding throughout (assay): relative viability (nuclei count vs DMSO), 5 days (fraction); higher = more cells survive
Compound in experiment [1]: CN1C=C(C2=CC=CC=C21)/C=C\3/C4=C(C=CC=N4)NC3=O + N=C(N)NC(=N)NCCc1ccccc1 [Phenformin] (partner 250 µM)
An outline of the steps:
(§1)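 After 5 days of treatment, lung cancer cells in 1536-well plates were fixed and stained in a single step (final 0.05% Triton X-100, 1% formaldehyde, 1 ug/ml Hoechst) and their nuclei counted on 4× images. Treatment had been applied by pin tool the day after seeding as one drug alone or as a fixed anchor-drug dose with five library-drug doses (not always all listed) in √10 steps. Relative viability is the nuclei count of treated wells divided by that of vehicle wells, and values are medians of duplicate plates.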

Compound in experiment [2]: CN1C=C(C2=CC=CC=C21)/C=C\3/C4=C(C=CC=N4)NC3=O + Cc1nc(Nc2ncc(C(=O)Nc3c(C)cccc3Cl)s2)cc(N2CCN(CCO)CC2)n1 [Dasatinib] (partner 0.075 µM)
The method, boiled down: as §1

Compound in experiment [3]: CN1C=C(C2=CC=CC=C21)/C=C\3/C4=C(C=CC=N4)NC3=O + Nc1ncn([C@H]2C[C@H](O)[C@@H](CO)O2)c(=O)n1 [Decitabine] (partner 2 µM)
The method, boiled down:
as §1

Compound in experiment [4]: CN1C=C(C2=CC=CC=C21)/C=C\3/C4=C(C=CC=N4)NC3=O + COc1cc2c(Oc3ccc(NC(=O)C4(C(=O)Nc5ccc(F)cc5)CC4)cc3F)ccnc2cc1OCCCN1CCOCC1 [Foretinib] (partner 0.25 µM)
The method, boiled down: as §1

For the cell line UMC-11, the relative viability was 0.299 in experiment [1] (first compound 0.02 µM); 0.306 in experiment [1] (first compound 0.06325 µM); 0.265 in experiment [1] (first compound 0.2 µM); 0.369 in experiment [1] (first compound 0.6325 µM); 0.34 in experiment [1] (first compound 2 µM); 0.556 in experiment [2] (first compound 0.02 µM). Further, the relative viability in experiment [2] (first compound 0.06325 µM) was 0.449; in experiment [2] (first compound 0.2 µM), 0.367; in experiment [2] (first compound 0.6325 µM), 0.41; in experiment [2] (first compound 2 µM) it was 0.632; in experiment [3] (first compound 0.02 µM), 0.604; in experiment [3] (first compound 0.06325 µM) it was 0.631. Also, the relative viability was 0.497 in experiment [3] (first compound 0.2 µM); 0.395 in experiment [3] (first compound 0.6325 µM); 0.646 in experiment [3] (first compound 2 µM); 0.835 in experiment [4] (first compound 0.02 µM); 0.979 in experiment [4] (first compound 0.06325 µM); 1.06 in experiment [4] (first compound 0.2 µM). Further, the results for the relative viability in experiment [4] (first compound 0.6325 µM) and in experiment [4] (first compound 2 µM) were 1.14 and 1.29, respectively.

(Values after the supplement of paper PMC10307832.)
